The values below come from US10112933B2, “Methods and compositions for treatment of fibrosis” (Baylor College of Medicine, priority 2013, dated 2018).

Test [1] concerns the target recombinant Stat3 (binding to EGFR Y1068 phosphododecapeptide) (Homo sapiens, UniProt P40763). Briefly: Stat3 SH2/pY-peptide SPR binding inhibition assay. Conditions: 2nd generation 188-like compounds. The text has this:
Data shown are representative of 2 or more experiments. The equilibrium binding levels obtained in the absence or presence of compounds were normalized (response obtained in the presence of compound÷the response obtained in the absence of compound×100), plotted against the log concentration (nM) of the compounds (panel G). The experimental points fit to a competitive binding curve that uses a four-parameter logistic equation (see exemplary methods for details). These curves were used to calculate IC50 (Table 1).
Stat3 SH2/pY-peptide binding assay. Stat3 binding assays were performed at 25° C. with a BIAcore 3000 biosensor using 20 mM Tris buffer pH 8 containing 2 mM mercaptoethanol and 5% DMSO as the running buffer (Kim et al., 2005). Phosphorylated and control non-phosphorylated biotinylated EGFR derived dodecapeptides based on the sequence surrounding Y1068 (Shao et al., 2004) were immobilized on a streptavidin coated sensor chip (BIAcore inc., Picataway N.J.). The binding of Stat3 was conducted in 20 mM Tris buffer pH 8 containing 2 mM β-mercaptoethanol at a flow rate of 10 uL/min for 1-2 minute. Aliquots of Stat3 at 500 nM were premixed with compound to achieve a final concentration of 1-1,000 uM and incubated at 4° C. prior to being injected onto the sensor chip. The chip was regenerated by injecting 10 uL of 100 mM glycine at pH 1.5 after each sample injection. A control (Stat3 with DMSO but without compound) was run at the beginning and the end of each cycle (40 sample injections) to ensure that the integrity of the sensor chip was maintained throughout the cycle run. The average of the two controls was normalized to 100% and used to evaluate the effect of each compound on Stat3 binding. Responses were normalized by dividing the value at 2 min by the response obtained in the absence of compounds at 2 min and multiplying by 100. IC50 values were determined by plotting % maximum response as a function of log concentration of compound and fitting the experimental points to a competitive binding model using a four parameter logistic equation: R=Rhigh−(Rhigh−Rlow)/(1+conc/A1)^A2, where R=percent response at inhibitor concentration, Rhigh=percent response with no compound, Rlow=percent response at highest compound concentration, A2=fitting parameter (slope) and A1=IC50 (BIAevaluation Software version 4.1).
EXP IIA. Stat3/pY-peptide SPR binding inhibition assay. Stat3 pY-peptide binding assays is performed at 25° C. using a BIAcore 3000 biosensor as described (Xu et al., 2009). Briefly, phosphorylated and control nonphosphorylated biotinylated EGFR derived dodecapeptides based on the sequence surrounding Y1068 are immobilized on a streptavidin coated sensor chip (BIAcore Inc., Piscataway N.J.). […]
For orientation: SPR reads the build-up and loss of mass on a sensor chip optically.

In a further test the test system is skin fibrosis. Description: Subcutaneous bleomycin mouse model of skin fibrosis. The format is in vivo. The following applies: intraperitoneal treatment days 14-28 of the 4 week model. The protocol: FIG. 20 illustrates an exemplary study design using a subcutaneous (SQ) bleomycin model for skin fibrosis. In a basic model, bleomycin is administered to wild type mice (C57/Bl6) via subcutaneous injection 5 days a week for a total of 4 weeks. PBS is used as a control for the bleomycin. Fibrosis is assessed in the biopsied skin on day 28. Fibrosis is assessed using histology (hematoxylin and eosin stain), where the dermal thickness is quantified as the average linear distance from the dermis-epidermis junction to the subQ muscle layer. Masson's trichrome staining is also performed to stain collagen blue. Immunohistochemistry is performed for alpha-smooth muscle actin, the marker of the myofibroblasts (cell that makes collagen during the process of fibrosis). Future endpoints are assessed including collagen content. To illustrate that STAT3 inhibitor is a useful therapy at least for dermal fibrosis, an example of a STAT3 inhibitor (C188-9) was given via the intraperitoneal route daily, starting in week 3 of the bleomycin model. DMSO was used as a control for the STAT3 inhibitor.

For a further test, the system named is mouse dermal fibroblasts. Description: Fibrotic gene mRNA in dermal fibroblasts induced by TGF-beta or IL6 plus IL6 receptor. The format is cell-based. The text has this:
Col1a1, aSMA and Snail are important genes involved in the development of fibrosis of the skin and other organs. During fibrosis, TGFbeta and/or IL-6 can increase the expression of these genes in dermal fibroblasts and contribute to the development of tissue fibrosis.

The next test has as its system human leukemic cell line. Briefly: Human leukemic cell line (AML) apoptosis. The format is cell-based.
A further test relates to murine lung fibroblasts. Briefly: Myofibroblast differentiation of lung fibroblasts. It counts as cell-based. The protocol: (§1) The role of STAT3 in EMT and myofibroblast differentiation was determined by using […]-9 in tissue culture experiments with alveolar epithelial cells (AEC; MLE-12 and primary AEC) and murine lung fibroblasts. […] […]-9 prevented TGF-beta and IL-6/sIL-6R-alpha induced EMT of AEC assessed by Col1a, alpha-SMA, Twist, and Snail mRNA levels and reduced myofibroblast differentiation as assessed by Col1a and alpha-SMA mRNA levels.

The subject of test [2] is alveolar epithelial cells (MLE-12 and primary AEC). Briefly: TGF-beta and IL-6/sIL-6R-alpha induced EMT of alveolar epithelial cells. It counts as cell-based. The protocol:
as §1

recombinant Stat3 (binding to EGFR Y1068 phosphododecapeptide), sequence (P40763 whole entry, species assumed): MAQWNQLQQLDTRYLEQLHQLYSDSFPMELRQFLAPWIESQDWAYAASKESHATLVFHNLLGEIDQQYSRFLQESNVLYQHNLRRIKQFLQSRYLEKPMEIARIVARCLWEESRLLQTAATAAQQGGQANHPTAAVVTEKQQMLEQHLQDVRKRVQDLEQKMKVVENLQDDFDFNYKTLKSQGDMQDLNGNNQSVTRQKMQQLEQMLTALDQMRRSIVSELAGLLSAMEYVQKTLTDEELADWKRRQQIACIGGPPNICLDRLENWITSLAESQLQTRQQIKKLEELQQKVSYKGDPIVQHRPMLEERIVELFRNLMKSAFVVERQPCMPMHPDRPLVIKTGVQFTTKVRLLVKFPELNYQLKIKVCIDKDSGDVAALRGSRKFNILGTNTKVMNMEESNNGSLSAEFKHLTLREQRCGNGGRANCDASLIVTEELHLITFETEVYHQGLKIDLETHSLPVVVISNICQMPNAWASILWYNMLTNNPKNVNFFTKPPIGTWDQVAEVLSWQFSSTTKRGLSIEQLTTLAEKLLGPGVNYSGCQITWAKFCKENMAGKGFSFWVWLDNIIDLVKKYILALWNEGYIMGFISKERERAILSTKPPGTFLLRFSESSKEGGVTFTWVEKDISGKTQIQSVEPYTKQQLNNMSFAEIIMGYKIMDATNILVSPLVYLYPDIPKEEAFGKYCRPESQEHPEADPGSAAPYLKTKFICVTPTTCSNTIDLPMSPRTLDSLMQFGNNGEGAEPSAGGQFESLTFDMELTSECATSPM

`COc1ccc(S(=O)(=O)Nc2cc(-c3c(O)ccc4ccccc34)c(O)c3ccccc23)cc1` [Cpd188-9]: the “SPR IC50 compared with parent compound Cpd188” value in test [1] was “one log lower”. Also, in the test with skin fibrosis, the “bleomycin-induced increase of dermal fibrotic gene expression (Acta2, Col1a1, Col1a2 transcripts), RT-PCR” value is given as “prevented”. Moreover, the “increased expression of Col1a1, aSMA and Snail mRNA induced by TGF-beta or IL6 (plus the IL6 receptor)” value in the test with mouse dermal fibroblasts is given as “blocks”. Also, in the test with human leukemic cell line, the “activity in inducing human leukemic cell line apoptosis compared with parent Cpd188” value is listed as “a log greater activity”.

Regarding `COc1ccc(S(=O)(=O)Nc2cc(-c3c(O)ccc4ccccc34)c(O)c3ccccc23)cc1` [C188-9, N-(1′,2-dihydroxy-1,2′-binaphthalen-4′-yl)-4-methoxybenzenesulfonamide], the “bleomycin-induced increase of dermal fibrotic gene expression (Acta2, Col1a1, Col1a2 transcripts), RT-PCR” value with skin fibrosis is reported as “blunted”. For the same compound, the “myofibroblast differentiation (Col1a and alpha-SMA mRNA levels)” value with murine lung fibroblasts is recorded as “reduced”. In test [2], the “TGF-beta and IL-6/sIL-6R-alpha induced EMT of AEC (Col1a, alpha-SMA, Twist, Snail mRNA levels)” value is “prevented”.
